Laboratory results published in US20080119477A1, “N-Biaryl and N-Arylheteroaryl Piperazine Derivatives as Modulators of the 5Ht2c Receptor Useful For the Treatment of Disorders Related Thereto” (priority 2004, published 2008).

How the values were obtained:
human 5HT2C receptor = biological target: T1, human 5HT2C receptor (Homo sapiens, UniProt P28335); test: Intracellular IP3 accumulation assay, 5HT2C; assay type: cell-based; conditions: HEK293 cells transfected with human 5HT2C receptor cDNA; read-out: 5HT2C (EC50) IP Accumulation Assay
T1 construct: expressed in transfected cells; host or cells: HEK293
T1 sequence (P28335 33-458): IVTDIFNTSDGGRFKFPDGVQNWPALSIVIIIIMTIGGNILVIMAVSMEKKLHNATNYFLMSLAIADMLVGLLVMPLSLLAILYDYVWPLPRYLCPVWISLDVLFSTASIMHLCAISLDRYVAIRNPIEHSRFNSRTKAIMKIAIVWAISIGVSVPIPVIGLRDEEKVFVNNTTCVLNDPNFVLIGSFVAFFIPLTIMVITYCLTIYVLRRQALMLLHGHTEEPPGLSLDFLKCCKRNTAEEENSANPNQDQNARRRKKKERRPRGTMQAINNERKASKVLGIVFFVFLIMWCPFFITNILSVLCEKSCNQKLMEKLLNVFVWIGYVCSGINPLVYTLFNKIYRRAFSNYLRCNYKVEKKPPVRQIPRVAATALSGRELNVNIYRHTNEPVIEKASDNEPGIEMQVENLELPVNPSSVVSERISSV
Method: Intracellular IP3 Accumulation Assay:
HEK293 cells were transfected in 15 cm sterile dishes with or without (control) 16 ug of human 5HT2C receptor cDNA [for example see, Saltzman, A. G., et al. Biochem. Biophys. Res. Commun. 181, 1469-1478 (1991)] using 25 ul of lipofectamine. Cells were then incubated for 3-4 hours at 37° C./5% CO2 and then transfection media was removed and replaced with 100 ul of DMEM. Cells were then plated onto 100 cm sterile dishes. The next day cells were plated into 96 well PDL microtiter plates at a density of 55 K/0.2 mL. Six hours latter, media was exchanged with [^3H]inositol (0.25 uCi/well) in inositol free DMEM and plates were incubated at 37° C./5% CO2 overnight. The next day, wells were aspirated and 200 ul of DMEM containing test compound, 10 uM pargyline, and 10 mM LiCl was added to appropriate wells. Plates were then incubated at 37° C./5% CO2 for three hours followed aspiration and by addition of fresh ice cold stop solution (1M KOH, 19 mM Na-borate, 3.8 mM EDTA) to each well. Plates were kept on ice for 5-10 min and the wells were neutralized by addition of 200 ul of fresh ice cold neutralization solution (7.5% HCl). Plates were then frozen until further processing is desired. The lysate was then transferred into 1.5 mL Eppendorf tubes and 1 mL of chloroform/methanol (1:2) was added/tube. […]

5HT2B receptor = 5HT2B receptor (Homo sapiens, UniProt P41595); test: Activity against the 5HT2B receptor (selectivity); assay type: cell-based
Chain of 5HT2B receptor (P41595 whole entry): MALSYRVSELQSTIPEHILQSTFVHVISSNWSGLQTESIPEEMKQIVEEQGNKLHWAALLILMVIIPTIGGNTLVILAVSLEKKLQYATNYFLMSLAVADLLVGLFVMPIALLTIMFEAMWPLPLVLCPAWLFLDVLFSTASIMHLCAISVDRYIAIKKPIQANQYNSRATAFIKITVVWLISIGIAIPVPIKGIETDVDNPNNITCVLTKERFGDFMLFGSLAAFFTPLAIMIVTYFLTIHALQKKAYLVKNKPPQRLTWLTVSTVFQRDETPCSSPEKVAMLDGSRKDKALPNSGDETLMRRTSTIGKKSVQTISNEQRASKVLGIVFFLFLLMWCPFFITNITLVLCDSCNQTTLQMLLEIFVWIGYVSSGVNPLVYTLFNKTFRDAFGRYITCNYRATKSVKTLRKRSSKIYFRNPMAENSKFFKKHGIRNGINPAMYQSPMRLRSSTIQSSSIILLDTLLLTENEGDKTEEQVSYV

5HT2A receptor = 5HT2A receptor (Homo sapiens, UniProt P28223); test: EC50 against the 5HT2A receptor (selectivity); assay type: cell-based
Chain of 5HT2A receptor (P28223 whole entry): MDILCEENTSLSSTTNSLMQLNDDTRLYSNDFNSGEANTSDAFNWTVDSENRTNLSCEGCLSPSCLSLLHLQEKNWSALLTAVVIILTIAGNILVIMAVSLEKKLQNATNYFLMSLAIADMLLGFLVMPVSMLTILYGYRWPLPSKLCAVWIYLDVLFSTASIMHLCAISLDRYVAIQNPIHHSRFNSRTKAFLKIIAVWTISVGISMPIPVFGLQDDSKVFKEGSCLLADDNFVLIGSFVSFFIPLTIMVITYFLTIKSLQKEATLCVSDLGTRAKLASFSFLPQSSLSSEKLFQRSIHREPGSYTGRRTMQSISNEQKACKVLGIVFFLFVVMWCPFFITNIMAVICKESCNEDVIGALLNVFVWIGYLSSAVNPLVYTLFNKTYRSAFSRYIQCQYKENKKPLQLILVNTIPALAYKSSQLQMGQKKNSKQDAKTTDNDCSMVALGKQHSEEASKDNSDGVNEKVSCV

[1] = tested on: amyloid precursor protein (APPs) secretion; conditions: guinea pigs, repeat administration; cited from earlier work

Fc1cc(-c2ccsc2)cc(N2CCNCC2)c1 [Compound 1, 1-(3-Fluoro-5-thiophen-3-yl-phenyl)-piperazine]
EC50 (human 5HT2C receptor): 7 nM | activity against the 5HT2B receptor (5HT2B receptor): essentially inactive | EC50 (5HT2A receptor): > 10 µM

Fc1ccc(-c2ccccc2)cc1N1CCNCC1 [Compound 10, 1-(4-Fluoro-biphenyl-3-yl)-piperazine]
EC50 (human 5HT2C receptor): 21 nM | activity against the 5HT2B receptor (5HT2B receptor): essentially inactive

C[C@H](N)Cc1cccc(C(F)(F)F)c1 [dexnorfenfluramine]
amyloid precursor protein (APPs) secretion [1]: stimulated | levels of Aβ production in vivo [1]: reducing levels
